Test results as given in patent publication US11472846B2, “Compositions and methods for treating diseases by inhibiting exosome release” (priority 2016, dated 2022).

Assays:
Format in all cases: cell-based, human
[1] = system: MDA-MB-231 breast cancer cells; assay: InnoCyte cell migration assay, MDA-MB-231; details: MDA-MB-231 cells, 280 nM SMR peptide or 3 μM Latrunculin A, 24 hours
Method: 7-12. Cell migration assay. Cell migration assays were performed using the InnoCyte Cell Migration Assay (EMD Millipore Corporation, Temecula, Calif.) according to the manufacturer's instructions. Briefly, cell migration was monitored in the presence and absence of SMRwt peptides or latrunculin A (positive control inhibitor), which were added to the lower chamber of a 96-well plate. MCF-7 and MDA-MB-231 breast cancer cells and non-tumorigenic MCF-10A breast cells were harvested by 0.25% Trypsin-EDTA (Life Technologies) release and resuspended at 250,000500,000 cells/ml in serum-free RPMI 1640 media. A total of 25,000-50,000 cells was added to the upper chamber and allowed to migrate through an 8-μm pore-size membrane for 24 hours at 37° C. in a 5% CO2 atmosphere. Cells that migrated through the membrane were detached and labeled with Calcein-AM fluorescent dye. Fluorescence was measured using a Fluorescence Plate Reader (Molecular Devices, Sunnyvale, Calif.) with an excitation wavelength of 485 nm and an emission wavelength of 515 nm. The experiment was repeated in triplicate, and each conditioned experiment was performed in quadruplicate.

[2] = system: MCF-7 breast cancer cells; assay: Exosome release by acetylcholinesterase (AchE) assay, MCF-7; details: for average AChE concentration days 1 to 5: MCF-7 cells, five-day treatment
Method: 1-6. Exosome isolation and purification. Exosomes were isolated from breast cancer cells by differential centrifugation as previously described (Ali SA. et al., 2010). Untreated tumor cells were used as a control. Briefly, the above treated and untreated cell culture supernatants were centrifuged at 400×g for 10 minutes. The supernatants were transferred to a clear tube and centrifuged at 10,000×g for 30 minutes. The supernatants from the second spin were ultracentrifuged at 200,000×g for 2 hours to pellet exosomes. Finally, the exosome pellets were re-suspended with PBS and stored at 4° C. until used for analysis.
1-7. Exosome characterization by acetylcholinesterase (AchE) assay. Purified exosomes were quantitated by measurement of AchE as described (Ellman et al., 1961). Briefly, a 100 mM dithibionitrobenzoic (DTNB) solution was prepared for use as a stock color indicator, and a 28.9 mg/mL acetylthiocholine iodide in PBS solution was prepared as a stock substrate. The stock substrate stock can be stored at −20° C. up to one month, while the color indicator can be stored at 4° C. for two weeks. A working solution was prepared by mixing 10 mL of PBS with 200 μL of Substrate and 500 μl of DTNB. 50 μL of each exosome sample was transferred to 96 well microtitre plates, and a standard curve was prepared using AchE from 0.98 mU/mL to 2000 mU/mL. After 50 μL of standards were added into separate wells, 200 μL of the working solution was added to all wells. After 20 min incubation, AchE activity was measured at 450 nm using a SpectroMax M5 fluorimeter.
7-5. Exosome isolation and purification. Exosomes were isolated from breast cancer cells and leukemia cells using the ExoQuick-TC Exosome Precipitation Kit (System Biosciencences [SBI], Mountain View Calif.) or the miRCURY Exosome Isolation Kit (EXIQON, Woburn, Mass.) according to the manufacturer's instructions. Untreated tumor cells were used as a control. Briefly, treated and untreated cell culture supernatants (10 mL) were centrifuged at 3000×g for 15 minutes. The resulting supernatants were transferred to a clear tube, 2 mL of ExoQuick-TC buffer was added, mixed and incubated overnight at 4° C. Following the incubation, the sample contents were centrifuged at 1500×g for 30 minutes, the supernatants were aspirated off, the pellets were centrifuged at 1500×g for 5 minutes and any further traces of supernatant were removed (SBI). Alternatively, treated and untreated cell culture supernatants were centrifuged at 10,000×g for 5 minutes to remove cell debris, supernatants (10 ml) were transferred into new tubes, and 4 mL of precipitation buffer (EXIQON) was added, and the contents were mixed and incubated at 4° C. overnight. Following the incubation, the sample contents were centrifuged at 10,000×g for 30 minutes (EXIQON). Exosome-containing pellets were re-suspended in PBS and stored at 4° C. or −80° C.
7-6. Exosome characterization by acetylcholinesterase (AchE) assay. Purified exosomes were quantitated by measurement of AchE as previously described (Huang et al., Oncotarget, 2017. 8(7): pp. 11302-11315). Briefly, 100 mM dithibionitrobenzoic (DTNB) was prepared as a stock color indicator, and prepared a stock substrate containing 28.9 mg/mL of acetylthiocholine iodide in PBS. Substrate stock can be stored at −20° C. up to one month; the stock color indicator can be stored at 4° C. for two weeks. A working solution was prepared by mixing 10 mL of PBS with 200 μL of substrate and 500 μl of DTNB. 50 μL of each exosome sample was transferred to a 96 well microtitre plate, and a standard curve for AchE concentrations was prepared using AchE from 0.98 mU/mL to 2000 mU/mL. After 50 μL of standards were added into separate wells, 200 μL of the working solution was added to each well. After a 20 min incubation, AchE activity was measured at 450 nm using a SpectroMax M5 fluorometer (FIG. 11).

[3] = system: exosomes from MCF-7 cells; assay: Western blot of exosomal proteins (Alix, vimentin, mortalin), MCF-7; details: 48 hr treatment, vs negative controls
Method: 7-7. Protein analysis by Western blotting. Exosomes were isolated from cell culture supernatants as described above. Protein concentrations were determined by measuring absorbance at 280 nm (Nanodrop 2000). Cultured cells were treated with PEG-SMR-Clu, SMR-CPP peptides, MKT-077, Omeprazole or DMA at 37° C. for 48 hr. To evaluate mortalin, vimentin and exosome expression, Western blot analysis was performed using anti-mortalin (Grp-75), anti-Vimentin and anti-Alix antibodies, respectively (FIG. 12).
Exosomes and cell lysates were prepared by incubating 5-10 min at 95° C. in sample buffer. The lysates were subjected to SDS-PAGE under reducing conditions (150 mM DTT) in 4-20% Criterion™ TGX™ precast gels (BioRad, Hercules, Calif.) and then transferred onto a nitrocellulose membrane (Bio-Rad, Hercules, Calif.). Nitrocellulose membranes were blocked with 5% skim milk (MedSupply, Atlanta, Ga.) in TBS containing 0.05% Tween 20 (TBST) for 1 h at room temperature. The membranes were treated with anti-mortalin (Grp-75) mAb or anti-α-tubulin mAb for cell lysates (FIG. 15, Panels A and B) or with anti-Alix and anti-vimentin or anti-mortalin for exosomes (FIG. 12), followed by peroxidase-conjugated goat anti-mouse IgG. Bands were developed with an ECL chemiluminescent substrate (Santa Cruz Biotechnology, Santa Cruz, Calif.) and exposed to an ImageQuant LAS 4000 imaging system (GE Healthcare, Piscataway, N.J. 08854).

Sequence | reduced migration by [1] | AchE activity in exosomes ([2]; MCF-7 cells treated 48 hr, control exosomes 113.49 mU/mL) | average AChE concentration days 1 to 5 [2] | Alix expression in exosomes [3] | Mortalin expression in exosomes [3] | Vimentin expression in exosomes [3]
NXNVGFPVAAVGFPVHPLSKHPYWSQP (SEQ ID NO: 37) [PEG-SMRwt-Clu] | 52.37% | 41.95 mU/mL | 31 mU/mL | significantly decreased | significantly decreased | significantly decreased
VGFPVAAVGFPVGRKKRRQRRRPPQ [SMRwt-CPP] | 46.39% |  | 22 mU/mL | significantly decreased | no significant changes | significantly decreased
